Columns and labels:
[1] = molecular target: Hepatocyte growth factor receptor (Homo sapiens, UniProt P08581); test: Inhibition of c-Met (unknown origin) by HTRF method
MDA-MB-468 [2] = test: Antiproliferative activity against human MDA-MB-468 cells harboring wild type BRCA1/2, HR-proficient and non-c-Met amplification assessed as inhibition of cell growth incubated for 7 days by MTT assay; format: functional, cell-based; details: MDA-MB-468, 168 h
MDA-MB-468 [3] = test: Potency index, ratio of olaparib IC50 to test compound IC50 for antiproliferative activity against human MDA-MB-468 cells harboring wild type BRCA1/2, HR-proficient and non-c-Met amplification assessed as inhibition of cell growth incubated for 7 days by MTT assay; format: functional; details: time 7 day
MDA-MB-231 [4] = test: Induction of apoptosis in human MDA-MB-231 cells assessed as early apoptotic cells at 1 uM incubated for 4 days by Annexin V-FITC/PI staining based flow cytometry analysis (reference value: 3.88%); format: functional; details: time 4 day
[5] = Antiproliferative activity against human Olaparib-resistant HCC1937 cells harboring BRCA1 mutant and PARP1 overexpression assessed as inhibition of cell growth incubated for 7 days by MTT assay; format: functional, cell-based; details: Olaparib-resistant HCC1937, 168 h
MDA-MB-231 [6] = test: Induction of apoptosis in human MDA-MB-231 cells assessed as late apoptotic cells at 1 uM incubated for 4 days by Annexin V-FITC/PI staining based flow cytometry analysis (reference value: 0.81%); format: functional; details: time 4 day
MDA-MB-231 [7] = test: Induction of apoptosis in human MDA-MB-231 cells assessed as dead cells at 0.5 uM incubated for 4 days by Annexin V-FITC/PI staining based flow cytometry analysis (reference value: 0.72%); format: functional; details: time 4 day
MDA-MB-468 [8] = test: Potency index, ratio of crizotinib IC50 to test compound IC50 for antiproliferative activity against human MDA-MB-468 cells harboring wild type BRCA1/2, HR-proficient and non-c-Met amplification assessed as inhibition of cell growth incubated for 7 days by MTT assay; format: functional; details: time 7 day
[9] = tested on: Olaparib-resistant HCT116; test: Antiproliferative activity against human Olaparib-resistant HCT116 cells harboring BRCA2 mutant assessed as inhibition of cell growth incubated for 7 days by MTT assay; format: functional, cell-based; details: Olaparib-resistant HCT116, 168 h
[10] = Cytotoxicity against NRK cells assessed as inhibition of cell growth incubated for 72 hrs by MTT assay; format: toxicity, cell-based; details: rat
MDA-MB-231 [11] = test: Induction of apoptosis in human MDA-MB-231 cells assessed as early apoptotic cells at 0.5 uM incubated for 4 days by Annexin V-FITC/PI staining based flow cytometry analysis (reference value: 3.88%); format: functional; details: time 4 day
MDA-MB-231 [12] = test: Induction of apoptosis in human MDA-MB-231 cells assessed as dead cells at 1 uM incubated for 4 days by Annexin V-FITC/PI staining based flow cytometry analysis (reference value: 0.72%); format: functional; details: time 4 day
[13] = molecular target: Poly [ADP-ribose] polymerase 1 (Homo sapiens, UniProt P09874); test: Inhibition of PARP1 (unknown origin) using histone as substrate incubated for 45 mins by absorbance based analysis
Chain of Poly [ADP-ribose] polymerase 1 (P09874 whole entry): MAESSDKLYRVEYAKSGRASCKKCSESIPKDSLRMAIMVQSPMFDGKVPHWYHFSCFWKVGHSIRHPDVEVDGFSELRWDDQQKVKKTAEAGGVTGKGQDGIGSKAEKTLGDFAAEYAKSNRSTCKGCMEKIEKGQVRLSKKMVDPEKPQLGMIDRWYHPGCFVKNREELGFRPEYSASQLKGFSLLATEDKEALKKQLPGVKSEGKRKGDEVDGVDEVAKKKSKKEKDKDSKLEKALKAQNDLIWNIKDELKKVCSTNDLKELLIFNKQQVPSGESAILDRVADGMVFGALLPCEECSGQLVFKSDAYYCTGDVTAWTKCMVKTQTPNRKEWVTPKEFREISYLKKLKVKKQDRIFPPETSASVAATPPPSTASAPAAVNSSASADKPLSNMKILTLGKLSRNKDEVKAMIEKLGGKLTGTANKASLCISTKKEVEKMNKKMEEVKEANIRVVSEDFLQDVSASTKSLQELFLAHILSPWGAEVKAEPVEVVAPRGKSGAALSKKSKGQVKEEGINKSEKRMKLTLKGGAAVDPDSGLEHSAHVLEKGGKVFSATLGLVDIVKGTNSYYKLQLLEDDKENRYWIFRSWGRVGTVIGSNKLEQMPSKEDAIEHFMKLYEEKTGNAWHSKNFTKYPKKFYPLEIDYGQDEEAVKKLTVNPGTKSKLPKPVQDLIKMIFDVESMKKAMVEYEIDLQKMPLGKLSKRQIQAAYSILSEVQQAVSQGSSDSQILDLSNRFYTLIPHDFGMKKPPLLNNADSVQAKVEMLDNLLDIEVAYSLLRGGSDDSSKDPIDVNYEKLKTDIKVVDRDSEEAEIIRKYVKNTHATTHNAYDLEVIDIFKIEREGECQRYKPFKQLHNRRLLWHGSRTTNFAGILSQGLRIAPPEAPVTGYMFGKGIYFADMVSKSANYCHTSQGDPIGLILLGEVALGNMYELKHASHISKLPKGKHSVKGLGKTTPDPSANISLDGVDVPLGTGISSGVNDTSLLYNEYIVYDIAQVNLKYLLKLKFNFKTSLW

MDA-MB-231 [14] = test: Induction of apoptosis in human MDA-MB-231 cells assessed as live cells at 0.5 uM incubated for 4 days by Annexin V-FITC/PI staining based flow cytometry analysis (reference value: 94.6%); format: functional; details: time 4 day
MDA-MB-231 [15] = test: Potency index, ratio of olaparib IC50 to test compound IC50 for antiproliferative activity against human MDA-MB-231 cells harboring wild type BRCA and c-Met amplification assessed as inhibition of cell growth incubated for 7 days by MTT assay; format: functional; details: time 7 day
MDA-MB-231 [16] = test: Induction of apoptosis in human MDA-MB-231 cells assessed as live cells at 1 uM incubated for 4 days by Annexin V-FITC/PI staining based flow cytometry analysis (reference value: 94.6%); format: functional; details: time 4 day
[17] = tested on: Olaparib-resistant HCT116; test: Potency index, ratio of olaparib IC50 to test compound IC50 for antiproliferative activity against human Olaparib-resistant HCT116 cells harboring BRCA2 mutant assessed as inhibition of cell growth incubated for 7 days by MTT assay; format: functional; details: time 7 day
MDA-MB-231 [18] = test: Induction of apoptosis in human MDA-MB-231 cells assessed as late apoptotic cells at 0.5 uM incubated for 4 days by Annexin V-FITC/PI staining based flow cytometry analysis (reference value: 0.81%); format: functional; details: time 4 day
MDA-MB-231 [19] = test: Antiproliferative activity against human MDA-MB-231 cells harboring wild type BRCA and c-Met amplification assessed as inhibition of cell growth incubated for 7 days by MTT assay; format: functional, cell-based; details: MDA-MB-231, 168 h
[20] = Potency index, ratio of olaparib IC50 to test compound IC50 for antiproliferative activity against human Olaparib-resistant HCC1937 cells harboring BRCA1 mutant and PARP1 overexpression assessed as inhibition of cell growth incubated for 7 days by MTT assay; format: functional; details: time 7 day

Chain of Hepatocyte growth factor receptor (P08581 whole entry): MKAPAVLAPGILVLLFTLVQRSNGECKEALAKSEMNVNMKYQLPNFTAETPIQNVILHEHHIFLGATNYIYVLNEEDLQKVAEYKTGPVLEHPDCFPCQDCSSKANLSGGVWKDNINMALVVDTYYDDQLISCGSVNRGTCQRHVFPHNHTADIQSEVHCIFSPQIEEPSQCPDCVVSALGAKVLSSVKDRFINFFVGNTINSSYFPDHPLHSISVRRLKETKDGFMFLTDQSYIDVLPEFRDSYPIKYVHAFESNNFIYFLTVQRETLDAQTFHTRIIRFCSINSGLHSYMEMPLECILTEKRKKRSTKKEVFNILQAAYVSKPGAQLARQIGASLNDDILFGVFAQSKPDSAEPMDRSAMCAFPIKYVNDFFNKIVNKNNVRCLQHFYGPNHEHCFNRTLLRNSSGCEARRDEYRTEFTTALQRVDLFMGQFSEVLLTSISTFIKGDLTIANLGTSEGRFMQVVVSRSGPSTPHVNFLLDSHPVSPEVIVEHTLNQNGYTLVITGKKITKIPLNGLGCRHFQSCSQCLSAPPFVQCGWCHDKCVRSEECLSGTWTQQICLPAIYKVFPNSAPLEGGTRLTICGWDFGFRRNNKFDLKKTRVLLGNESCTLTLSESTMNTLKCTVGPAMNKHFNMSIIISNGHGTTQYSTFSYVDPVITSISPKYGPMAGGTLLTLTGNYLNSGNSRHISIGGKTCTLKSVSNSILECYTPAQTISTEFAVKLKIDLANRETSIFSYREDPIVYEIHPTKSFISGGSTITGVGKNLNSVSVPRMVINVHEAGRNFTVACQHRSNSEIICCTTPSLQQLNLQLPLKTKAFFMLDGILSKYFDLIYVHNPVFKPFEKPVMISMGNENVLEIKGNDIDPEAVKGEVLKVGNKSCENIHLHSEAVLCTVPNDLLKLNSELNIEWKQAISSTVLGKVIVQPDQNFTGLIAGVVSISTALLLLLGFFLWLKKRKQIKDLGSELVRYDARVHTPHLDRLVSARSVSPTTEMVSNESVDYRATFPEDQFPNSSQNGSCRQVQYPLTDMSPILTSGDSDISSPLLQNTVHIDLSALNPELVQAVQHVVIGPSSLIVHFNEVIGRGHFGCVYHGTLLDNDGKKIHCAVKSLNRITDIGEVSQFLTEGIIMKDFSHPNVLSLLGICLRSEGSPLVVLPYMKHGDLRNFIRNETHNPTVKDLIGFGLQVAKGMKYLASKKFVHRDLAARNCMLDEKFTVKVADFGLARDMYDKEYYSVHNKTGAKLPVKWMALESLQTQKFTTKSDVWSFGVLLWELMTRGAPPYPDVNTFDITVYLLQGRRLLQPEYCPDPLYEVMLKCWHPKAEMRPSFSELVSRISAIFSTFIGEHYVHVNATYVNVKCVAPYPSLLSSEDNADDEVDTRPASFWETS

Structure (SMILES): O=C(c1cc(Cc2n[nH]c(=O)c3ccccc23)ccc1F)N1CCN(c2ccc3c(OCCn4nc(-c5cccnc5)ccc4=O)ccnc3c2)CC1
- IC50 [1]: 32.2 nM
- IC50 (MDA-MB-468 [2]): 170 nM
- Ratio IC50 (MDA-MB-468 [3]): 54
- Activity (MDA-MB-231 [4]): 15.8%
- IC50 [5]: 4570 nM
- Activity (MDA-MB-231 [6]): 10.6%
- Activity (MDA-MB-231 [7]): 5%
- Ratio IC50 (MDA-MB-468 [8]): 26
- IC50 [9]: 5330 nM
- IC50 at 72 h [10]: 8730 nM
- Activity (MDA-MB-231 [11]): 8.46%
- Activity (MDA-MB-231 [12]): 6.37%
- IC50 [13]: 3.3 nM
- Activity (MDA-MB-231 [14]): 78.5%
- Ratio IC50 (MDA-MB-231 [15]): 680
- Activity (MDA-MB-231 [16]): 67.2%
- Ratio IC50 [17]: 10
- Activity (MDA-MB-231 [18]): 8.09%
- IC50 (MDA-MB-231 [19]): 45 nM
- Ratio IC50 [20]: 4
